Experimental data taken from US8143290B2, “Chemical compounds 572” (AstraZeneca AB, priority 2006, dated 2012).

target: T1, recombinant human GR (Homo sapiens, UniProt P04150); test: Human Glucocorticoid Receptor (GR) Assay, fluorescence polarization; type: binding; details: GS Red tracer, incubated 2 h at r.t., XLfit model 205, read-out: GRhuFL_FP_v2 Mean IC50
T1 construct: purchased Panvera/Invitrogen P2812 (kit P2893)
T1 sequence (P04150 1-777): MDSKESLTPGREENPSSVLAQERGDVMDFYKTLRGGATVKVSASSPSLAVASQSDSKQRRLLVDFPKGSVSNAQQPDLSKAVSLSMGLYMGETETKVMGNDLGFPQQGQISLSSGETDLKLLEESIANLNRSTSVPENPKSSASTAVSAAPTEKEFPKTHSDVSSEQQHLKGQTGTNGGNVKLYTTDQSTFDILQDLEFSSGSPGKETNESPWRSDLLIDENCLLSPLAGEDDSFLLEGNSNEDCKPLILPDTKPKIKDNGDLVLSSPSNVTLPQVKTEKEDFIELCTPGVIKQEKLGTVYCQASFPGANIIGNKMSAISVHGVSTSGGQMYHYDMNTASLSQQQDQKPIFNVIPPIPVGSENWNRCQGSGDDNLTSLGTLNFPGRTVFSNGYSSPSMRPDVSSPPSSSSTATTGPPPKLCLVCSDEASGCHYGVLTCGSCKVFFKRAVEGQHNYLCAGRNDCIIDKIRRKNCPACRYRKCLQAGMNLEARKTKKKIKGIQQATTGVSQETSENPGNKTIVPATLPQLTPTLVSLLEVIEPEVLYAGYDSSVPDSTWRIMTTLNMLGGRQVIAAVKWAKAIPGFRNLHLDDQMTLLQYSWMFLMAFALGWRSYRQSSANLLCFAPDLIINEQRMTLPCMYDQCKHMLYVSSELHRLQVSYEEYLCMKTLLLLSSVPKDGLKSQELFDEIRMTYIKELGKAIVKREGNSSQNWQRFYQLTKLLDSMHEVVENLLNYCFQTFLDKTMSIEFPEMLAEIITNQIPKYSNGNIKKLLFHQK
Procedure, shortened: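 After 2 h dark incubation at r.t., polarization reported displacement of the GS Red tracer from recombinant GR, in buffer with phosphate, molybdate, EDTA, DTT and Stabilizing Peptide. Controls: dexamethasone (100%) and DMSO (0%).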

| IC50 | Structure (SMILES) |
| --- | --- |
| 4.4 nM | COc1cccc([C@@H](Oc2ccc3c(cnn3-c3ccc(F)cc3)c2)[C@H](C)NC(=O)c2ccccn2)c1 [Example 89, N-((1R,2S)-1-(1-(4-fluorophenyl)-1H-indazol-5-yloxy)-1-(3-methoxyphenyl)propan-2-yl)picolinamide] |
| 5.2 nM | CCC[C@H](NC(=O)CO)[C@H](Oc1ccc2c(cnn2-c2ccc(F)cc2)c1)c1ccccc1 [Example 91, N-((1R,2S)-1-(1-(4-fluorophenyl)-1H-indazol-5-yloxy)-1-phenylpentan-2-yl)-2-hydroxyacetamide] |
| 3.8 nM | CCC[C@H](NC(=O)C(C)(C)C)[C@H](Oc1ccc2c(cnn2-c2ccc(F)cc2)c1)c1ccccc1 [Example 92, N-((1R,2S)-1-(1-(4-fluorophenyl)-1H-indazol-5-yloxy)-1-phenylpentan-2-yl)pivalamide] |
| 3.7 nM | CCC[C@H](NC(=O)CO)[C@H](Oc1ccc2c(cnn2-c2ccc(F)cc2)c1)c1cccc(OC)c1 [Example 93, N-((1R,2S)-1-(1-(4-fluorophenyl)-1H-indazol-5-yloxy)-1-(3-methoxyphenyl)pentan-2-yl)-2-hydroxyacetamide] |
| 3.1 nM | CCC[C@H](NC(=O)C(C)(C)C)[C@H](Oc1ccc2c(cnn2-c2ccc(F)cc2)c1)c1cccc(OC)c1 [Example 94, N-((1R,2S)-1-(1-(4-fluorophenyl)-1H-indazol-5-yloxy)-1-(3-methoxyphenyl)pentan-2-yl)pivalamide] |
| 3.4 nM | CC[C@H](NC(=O)CO)[C@H](Oc1ccc2c(cnn2-c2ccc(F)cc2)c1)c1ccccc1 [Example 95, N-((1R,2S)-1-(1-(4-fluorophenyl)-1H-indazol-5-yloxy)-1-phenylbutan-2-yl)-2-hydroxyacetamide] |
| 3.5 nM | CC[C@H](NC(=O)C(C)(C)C)[C@H](Oc1ccc2c(cnn2-c2ccc(F)cc2)c1)c1ccccc1 [Example 96, N-((1R,2S)-1-(1-(4-fluorophenyl)-1H-indazol-5-yloxy)-1-phenylbutan-2-yl)pivalamide] |
| 3.3 nM | CC[C@H](NC(=O)CO)[C@H](Oc1ccc2c(cnn2-c2ccc(F)cc2)c1)c1cccc(OC)c1 [Example 97, N-((1R,2S)-1-(1-(4-fluorophenyl)-1H-indazol-5-yloxy)-1-(3-methoxyphenyl)butan-2-yl)-2-hydroxyacetamide] |
| 2.6 nM | C[C@H](NC(=O)C(F)(F)F)[C@H](Sc1ccc2c(cnn2-c2ccc(F)cc2)c1)c1ccccc1 [Example 103, 2,2,2-trifluoro-N-((1R,2S)-1-(1-(4-fluorophenyl)-1H-indazol-5-ylthio)-1-phenylpropan-2-yl)acetamide] |
| 3.6 nM | C[C@H](NC(=O)NC1CCCC1)[C@H](Oc1ccc2c(cnn2-c2ccc(F)cc2)c1)c1ccccc1 [Example 104] |
| 3.2 nM | C[C@H](NC(=O)NCc1ccco1)[C@H](Oc1ccc2c(cnn2-c2ccc(F)cc2)c1)c1ccccc1 [Example 105, 1-{(1S,2R)-2-{[1-(4-Fluorophenyl)-1H-indazole-5-yl]oxy}-1-methyl-2-phenylethyl}-3-(2-furylmethyl)urea] |
| 3.7 nM | CCOC(=O)CNC(=O)N[C@@H](C)[C@H](Oc1ccc2c(cnn2-c2ccc(F)cc2)c1)c1ccccc1 [Example 106, Ethyl N-{[(1S,2R)-2-{[1-(4-fluorophenyl)-1H-indazole-5-yl]oxy}-1-methyl-2-phenylethyl]carbamoyl}glycinate] |
| 4 nM | CC(C)[C@@H](C)NC(=O)N[C@@H](C)[C@H](Oc1ccc2c(cnn2-c2ccc(F)cc2)c1)c1ccccc1 [Example 107] |
| 4.9 nM | C[C@H](NC(=S)NCc1ccco1)[C@H](Oc1ccc2c(cnn2-c2ccc(F)cc2)c1)c1ccccc1 [Example 108, 1-{(1S,2R)-2-{[1-(4-Fluorophenyl)-1H-indazole-5-yl]oxy}-1-methyl-2-phenylethyl}-3-(2-furylmethyl)thiourea] |
| 23 nM | COCC(=O)N[C@@H](CC(C)C)[C@H](Oc1ccc2c(cnn2-c2ccc(F)cc2)c1)c1cccc(F)c1 [Example 109, N-{(1S)-1-[(R)-(3-Fluorophenyl)-{[1-(4-fluorophenyl)-1H-indazole-5-yl]oxy}methyl]-3-methyl-butyl}-2-methoxyacetamide] |
| 29 nM | CC(C)C[C@H](NC(=O)C(F)(F)F)[C@H](Oc1ccc2c(cnn2-c2ccc(F)cc2)c1)c1cccc(F)c1 [Example 110, 2,2,2-Trifluoro-N-{(1S)-1-[(R)-(3-Fluorophenyl)-{[1-(4-fluorophenyl)-1H-indazole-5-yl]oxy}methyl}-3-methylbutyl}-acetamide] |
| 15 nM | COCC(=O)N[C@@H](COC)[C@H](Oc1ccc2c(cnn2-c2ccc(F)cc2)c1)c1cccc(F)c1 [Example 111, N-[(1)-(2R)-(3-Fluorophenyl)-2-{[1-(4-fluorophenyl)-1H-indazole-5-yl]oxy}-1-(methoxymethyl)ethyl]-2-methoxyacetamide] |
| 21 nM | COC[C@H](NC(=O)c1ccco1)[C@H](Oc1ccc2c(cnn2-c2ccc(F)cc2)c1)c1cccc(F)c1 [Example 112, N-[(1S)-(2R)-(3-Fluorophenyl)-2-{[1-(4-fluorophenyl)-1H-indazol-5-yl]oxy}-1-(methoxymethyl)ethyl]furan-2-carboxamide] |
| 3.2 nM | C[C@H](NC(=O)c1ccco1)[C@H](Oc1ccc2c(cnn2-c2cccnc2)c1)c1ccccc1 [Example 114, N-[(1S,2R)-1-Methyl-2-phenyl-2-{[1-(3-pyridyl)-1H-indazol-5-yl]oxy}ethyl]furan-2-carboxamide] |
| 3.8 nM | C[C@H](NC(=O)c1ccco1)[C@H](Oc1ccc2c(cnn2-c2ccncc2)c1)c1ccccc1 [Example 115, N-[(1S,2R)-1-Methyl-2-phenyl-2-{[1-(4-pyridyl)-1H-indazol-5-yl]oxy}ethyl]furan-2-carboxamide] |
| 7.7 nM | COC(=O)c1ccc(-n2ncc3cc(O[C@H](c4ccccc4)[C@H](C)NC(=O)c4ccco4)ccc32)cc1 [Example 116, Methyl 4-(5-{(1R,2S)-2-[(2-furylcarbonyl)amino]-1-phenylpropoxy}-1H-indazol-1-yl)benzoate] |
| 2.9 nM | COCC(=O)N[C@@H](C)[C@H](Oc1ccc2c(cnn2-c2ccccn2)c1)c1ccccc1 [Example 118, 2-Methoxy-N-[1-methyl-2-phenyl-2-(1-pyridin-2-yl-1H-indazol-5-yloxy)-ethyl]acetamide] |
| 3.1 nM | C[C@H](NC(=O)C(F)(F)F)[C@H](Oc1ccc2c(cnn2-c2ccc(Cl)nn2)c1)c1ccccc1 [Example 119, N-{2-[1-(6-Chloro-pyridazin-3-yl)-1H-indazol-5-yloxy]-1-methyl-2-phenyl-ethyl}-2,2,2-trifluoro-acetamide] |
| 210 nM | COCC(=O)N[C@@H](C)[C@H](Oc1ccc2c(cnn2-c2ncccn2)c1)c1ccccc1 [Example 120, 2-Methoxy-N-[1-methyl-2-phenyl-2-(1-pyrimidin-2-yl-1H-indazol-5-yloxy)-ethyl]-acetamide] |
| 2.8 nM | COc1cccc([C@@H](Oc2ccc3c(cnn3-c3ccc(F)cc3)c2)[C@H](C)NC(=O)CO)c1 [Example 121, N-[(1R,2S)-1-[1-(4-fluorophenyl)indazol-5-yl]oxy-1-(3-methoxyphenyl)propan-2-yl]-2-hydroxy-acetamide] |
| 4.2 nM | C[C@H](NC(=O)CO)[C@H](Oc1ccc2c(cnn2-c2ccc(F)cc2)c1)c1ccc2c(c1)OCCO2 [Example 123, N-((1R,2S)-1-(2,3-dihydrobenzo[b][1,4]dioxin-6-yl)-1-(1-(4-fluorophenyl)-1H-indazol-5-yloxy)propan-2-yl)-2-hydroxyacetamide] |
| 2.7 nM | C[C@H](NC(=O)C1(C)CC1)[C@H](Oc1ccc2c(cnn2-c2ccc(F)cc2)c1)c1ccc2c(c1)OCCO2 [Example 124, N-((1R,2S)-1-(2,3-dihydrobenzo[b][1,4]dioxin-6-yl)-1-(1-(4-fluorophenyl)-1H-indazol-5-yloxy)propan-2-yl)-1-methylcyclopropanecarboxamide] |
| 6.4 nM | C[C@H](NC(=O)[C@@H]1CCCN1)[C@H](Oc1ccc2c(cnn2-c2ccc(F)cc2)c1)c1ccc2c(c1)OCCO2 [Example 125, (S)-N-((1R,2S)-1-(2,3-dihydrobenzo[b][1,4]dioxin-6-yl)-1-(1-(4-fluorophenyl)-1H-indazol-5-yloxy)propan-2-yl)pyrrolidine-2-carboxamide] |
| 2.9 nM | COc1cccc([C@@H](Oc2ccc3c(cnn3-c3ccc(Cl)cc3)c2)[C@H](C)NC(=O)C(F)(F)F)c1 [Example 126, N-((1R,2S)-1-(1-(4-chlorophenyl)-1H-indazol-5-yloxy)-1-(3-methoxyphenyl)propan-2-yl)-2,2,2-trifluoroacetamide] |
| 3.9 nM | COc1cccc([C@@H](Oc2ccc3c(cnn3-c3ccc(Cl)cc3)c2)[C@H](C)NC(=O)C(C)(F)F)c1 [Example 128, N-((1R,2S)-1-(1-(4-chlorophenyl)-1H-indazol-5-yloxy)-1-(3-methoxyphenyl)propan-2-yl)-2,2-difluoropropanamide] |
